Test results taken from patent US9828350B2, “5,6-dihydro-2H-[1,4]oxazin-3-yl-amine derivatives useful as inhibitors of beta-secretase (BACE)” (Janssen Pharmaceutica NV, priority 2010, dated 2017).

Key:
[1] = target: recombinant BACE1 protein (Homo sapiens, UniProt P56817); test: Biochemical FRET based assay; conditions: recombinant BACE1 1 μg/ml, 120 minutes at room temperature, pH 5.0; for IC50: read-out: Biochemical FRET based assay pIC50 (converted)
Outline: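 Recombinant BACE1 (1 μg/ml final) was incubated 120 minutes at room temperature with […] Mca/Dnp-labelled 13-mer APP Swedish-mutant peptide in 40 mM citrate pH 5.0, 0.04% PEG, 4% DMSO, with or without compound. Cleavage was measured as fluorescence (ex 320/em 405 nm), given as RFU difference between T120 and T0.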

Abeta total = test: Cellular αLisa assay in SKNBE2 cells, Abeta total; type: cell-based, human; conditions: incubated for 18 hours; for IC50: Homo sapiens, SKNBE2, 18 h, read-out: Cellular αLisa assay in SKNBE2 cells Abetatotal pIC50 (converted)
Outline: (§1)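 Human neuroblastoma SKNBE2 cells expressing wild-type hAPP695 were incubated with compound for 18 hours. Secreted Abeta total and Abeta 1-42 in medium were quantified by sandwich αLisa: biotinylated AbN/25 on streptavidin donor beads with Ab4G8 (total) or cAb42/26 (1-42) acceptor beads. Light emission read after 1 hour (ex 650 nm, em 615 nm).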

Abeta 1-42 = test: Cellular αLisa assay in SKNBE2 cells, Abeta 1-42; type: cell-based, human; conditions: incubated for 18 hours; for IC50: Homo sapiens, SKNBE2, 18 h, read-out: Cellular αLisa assay in SKNBE2 cells Abeta 42 pIC50 (converted)
Outline: as §1

Chain of recombinant BACE1 protein (P56817 46-501): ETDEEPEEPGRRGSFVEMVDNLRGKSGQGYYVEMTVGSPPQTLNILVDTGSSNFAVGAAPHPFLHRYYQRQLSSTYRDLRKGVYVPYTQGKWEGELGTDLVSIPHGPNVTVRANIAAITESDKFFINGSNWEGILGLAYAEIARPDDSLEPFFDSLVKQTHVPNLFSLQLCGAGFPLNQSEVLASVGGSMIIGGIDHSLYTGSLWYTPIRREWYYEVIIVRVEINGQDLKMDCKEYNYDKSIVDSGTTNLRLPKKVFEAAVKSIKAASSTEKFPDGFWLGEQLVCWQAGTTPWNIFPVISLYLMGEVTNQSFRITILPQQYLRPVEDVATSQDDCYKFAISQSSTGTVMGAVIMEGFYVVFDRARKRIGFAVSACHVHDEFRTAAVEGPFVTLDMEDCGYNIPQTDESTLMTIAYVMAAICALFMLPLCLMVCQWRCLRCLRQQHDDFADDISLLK

| Compound | IC50 [1] [nM] | Cellular αLisa assay in SKNBE2 cells Abetatotal pIC50 (Abeta total) | Cellular αLisa assay in SKNBE2 cells Abeta 42 pIC50 (Abeta 1-42) | IC50 (Abeta total) [nM] | IC50 (Abeta 1-42) [nM] | Biochemical FRET based assay pIC50 [1] |
| --- | --- | --- | --- | --- | --- | --- |
| CC1(c2cccc(-c3cncc(C#N)c3)c2)N=C(N)COC1C(F)(F)F (single isomer, unassigned) [Compound 205] | 15800 | 5.47 | 5.55 | – | – | – |
| CC1(c2cccc(-c3cncc(C#N)c3)c2)N=C(N)COC1C(F)(F)F (single isomer, unassigned) [Compound 206] | > 30200 | <5 | <5 | – | – | – |
| CC1(c2cccc(-c3cncc(C#N)c3)c2)N=C(N)COC1C(F)(F)F (single isomer, unassigned) [Compound 207] | 3470 | 6.24 | 6.33 | – | – | – |
| CC1(c2cc(-c3cncnc3)ccc2F)N=C(N)COC1C(F)(F)F (single isomer, unassigned) [Compound 238] | 832 | 6.66 | 6.65 | – | – | – |
| CC1(c2cc(-c3cncc(C#N)c3)ccc2F)N=C(N)COC1C(F)(F)F (single isomer, unassigned) [Compound 265] | 525 | 7.16 | 7.16 | – | – | – |
| CC1(c2cc(-c3cncc(C#N)c3)ccc2F)N=C(N)COC1C(F)(F)F (single isomer, unassigned) [Compound 266] | > 30200 | ~5 | <5 | – | – | – |
| CC1(c2cc(-c3cncnc3)ccc2F)N=C(N)COC1C(F)(F)F (single isomer, unassigned) [Compound 267] | > 30200 | <5 | 5.15 | – | – | – |
| C[C@]1(c2ccnc(-c3cc(Cl)cc(Cl)c3)c2)N=C(N)CO[C@@H]1F (single isomer, unassigned) [Compound 277, (5R*,6R*)-5-[2-(3,5-dichlorophenyl)pyridin-4-yl]-6-fluoro-5-methyl-5,6-dihydro-2H-1,4-oxazin-3-amine] | 219 | – | – | 112 | 107 | – |
| C[C@@]1(c2ccnc(-c3cc(Cl)cc(Cl)c3)c2)N=C(N)CO[C@H]1F (single isomer, unassigned) [Compound 278, (5S*,6S*)-5-[2-(3,5-dichlorophenyl)pyridin-4-yl]-6-fluoro-5-methyl-5,6-dihydro-2H-1,4-oxazin-3-amine] | 8710 | – | – | 3160 | 3240 | – |
| Cc1ccc(C(=O)Nc2ccc(F)c(C3(C)COCC(N)=N3)c2)nc1 (stereo not drawn) [Compound 24] | – | 7.73 | 7.77 | – | – | 6.77 |
| CC1(c2cc(NC(=O)c3ccc(F)cn3)ccc2F)COCC(N)=N1 (stereo not drawn) [Compound 25] | – | 7.9 | 7.93 | – | – | 6.93 |
| CC1(c2cc(NC(=O)c3ccc(Cl)cc3F)ccc2F)COCC(N)=N1.Cl (stereo not drawn) [Compound 27] | – | 7.04 | 7.06 | – | – | 6.35 |

The next lines start with the values.

| IC50 [1] [nM] | Cellular αLisa assay in SKNBE2 cells Abetatotal pIC50 (Abeta total) | Cellular αLisa assay in SKNBE2 cells Abeta 42 pIC50 (Abeta 1-42) | IC50 (Abeta total) [nM] | IC50 (Abeta 1-42) [nM] | Biochemical FRET based assay pIC50 [1] | Compound |
| --- | --- | --- | --- | --- | --- | --- |
| 2000 | 6.13 | 6.08 | – | – | – | Cc1ccc(C(=O)Nc2cccc(C3(C)N=C(N)COC3(F)C(F)(F)F)c2)nc1 (single isomer, unassigned) [Compound 194] |
| 53.7 | 8.02 | 8.01 | – | – | – | NC1=NC(c2cccc(NC(=O)c3ccc(Cl)cn3)c2)(C2CC2)COC1 (single isomer, unassigned) [Compound 195] |
| > 30200 | 6.95 | 6.92 | – | – | – | NC1=NC(c2cccc(NC(=O)c3ccc(Cl)cn3)c2)(C2CC2)COC1 (single isomer, unassigned) [Compound 196] |
| 363 | 7.09 | 7 | – | – | – | CC1(c2cc(-c3cncnc3)ccc2F)N=C(N)COC1C(F)(F)F (single isomer, unassigned) [Compound 268] |
| – | 7.663 | 7.59 | – | – | 6.7 | CC1(c2cc(NC(=O)c3cnc(C(F)(F)F)cn3)ccc2F)COCC(N)=N1 (stereo not drawn) [Compound 22] |
| – | 6.85 | 6.89 | – | – | 5.86 | CC1(c2cc(-c3cncc(Cl)c3)c(F)cc2F)COCC(N)=N1 (stereo not drawn) [Compound 23] |
| – | 6.74 | 6.72 | – | – | 5.67 | CC1(c2cc(NC(=O)c3ccc(C(F)(F)F)nn3)ccc2F)COCC(N)=N1 (stereo not drawn) [Compound 26] |
| – | 7.04 | 7.07 | – | – | 6.18 | CC1(c2cc(NC(=O)c3ccncn3)ccc2F)COCC(N)=N1 (stereo not drawn) [Compound 28] |
| – | 6.67 | 6.67 | – | – | 6.11 | CC1(c2cc(NC(=O)c3ccc(Cl)s3)ccc2F)COCC(N)=N1 (stereo not drawn) [Compound 29] |
| – | 7.66 | 7.57 | – | – | 6.05 | Cc1cccnc1C(=O)Nc1ccc(F)c(C2(C)COCC(N)=N2)c1 (stereo not drawn) [Compound 30] |
| – | 5.86 | 5.76 | – | – | 4.76 | CC1(c2cc(-c3cccc(C(F)(F)F)c3)c(F)cc2F)COCC(N)=N1 (stereo not drawn) [Compound 31] |
| – | 6.25 | 6.2 | – | – | 4.87 | CC1(c2cc(-c3cccc(C#N)c3)c(F)cc2F)COCC(N)=N1 (stereo not drawn) [Compound 32] |
| – | 5.75 | 5.72 | – | – | 4.91 | COc1ccc(-c2cc(C3(C)COCC(N)=N3)c(F)cc2F)cc1 (stereo not drawn) [Compound 33] |
| – | 5.58 | 5.54 | – | – | 5.05 | CC1(c2cc(-c3ccc(Cl)cc3)c(F)cc2F)COCC(N)=N1 (stereo not drawn) [Compound 34] |
| – | 8.4 | 8.37 | – | – | 7.11 | CC1(c2cc(NC(=O)c3ncc(Cl)cc3F)ccc2F)COCC(N)=N1 (stereo not drawn) [Compound 35] |
| – | 6.09 | 5.98 | – | – | 5.13 | CC1(c2cc(-c3cccc(OC(F)(F)F)c3)c(F)cc2F)COCC(N)=N1.Cl (stereo not drawn) [Compound 36] |
| – | 6.79 | 6.77 | – | – | 5.45 | C[C@@]1(c2cc(-c3cc(F)cc(F)c3)c(F)cc2F)COCC(N)=N1 [Compound 37] |
| – | 8.35 | 8.39 | – | – | 6.91 | C[C@@]1(c2cc(NC(=O)c3ccc(C(F)(F)F)cn3)ccc2F)COCC(N)=N1 [Compound 38] |
